Marks after values point to notes of the source that are not given here.
Tested on: female rats
Assay: 28-day repeated dose study, plasma metabolite profiling (GC-MS, LC-MS), female rats

Structure (SMILES): CC#C[C@]1(O)CC[C@H]2[C@@H]3CCC4=CC(=O)CCC4=C3[C@@H](c3ccc(N(C)C)cc3)C[C@@]21C [Mifepristone, (11b,17b)-11-[4-(Dimethylamino)phenyl]-17-hydroxy-17-(1-propynyl)estra-4,9-dien-3-one]
- 3-Methoxytyrosine, plasma, treatment ratio versus control (day 7): 1.09
- Arachidonic acid (C20:cis[5,8,11,14]4), plasma, treatment ratio versus control (day 7): 0.64*
- Campesterol, plasma, treatment ratio versus control (day 7): 0.61*
- Cholesterol, plasma, treatment ratio versus control (day 7): 0.65*
- Choline plasmalogen No 03, plasma, treatment ratio versus control (day 7): 0.89*
- Citrate, plasma, treatment ratio versus control (day 7): 0.83*
- Docosahexaenoic acid (C22:cis[4,7,10,13,16,19]6), plasma, treatment ratio versus control (day 7): 0.73*
- Docosapentaenoic acid (C22:cis[7,10,13,16,19]5), plasma, treatment ratio versus control (day 7): 0.67
- Dodecanol, plasma, treatment ratio versus control (day 7): 0.59*
- Elaidic acid (C18:trans[9]1), plasma, treatment ratio versus control (day 7): 0.74*
- Glycerol phosphate, lipid fraction, plasma, treatment ratio versus control (day 7): 0.52*
- Lysophosphatidylcholine (C20:4), plasma, treatment ratio versus control (day 7): 0.93
- Metanephrine, plasma, treatment ratio versus control (day 7): 0.9
- Phosphatidylcholine (C18:0,C18:1), plasma, treatment ratio versus control (day 7): 0.85
- Phosphatidylcholine (C18:0,C22:6), plasma, treatment ratio versus control (day 7): 0.87*
- Phosphatidylcholine No 04, plasma, treatment ratio versus control (day 7): 0.67*
- Progesterone, plasma, treatment ratio versus control (day 7): 0.67
- alpha-Tocopherol, plasma, treatment ratio versus control (day 7): 0.75
- gamma-Linolenic acid (C18:cis[6,9,12]3), plasma, treatment ratio versus control (day 7): 0.76
- myo-Inositol, lipid fraction, plasma, treatment ratio versus control (day 7): 0.63*
- threo-Sphingosine, plasma, treatment ratio versus control (day 7): 0.56*
- 3-Methoxytyrosine, plasma, treatment ratio versus control (day 14): 1
- Arachidonic acid (C20:cis[5,8,11,14]4), plasma, treatment ratio versus control (day 14): 0.71*
- Campesterol, plasma, treatment ratio versus control (day 14): 0.66*
- Cholesterol, plasma, treatment ratio versus control (day 14): 0.72*
- Choline plasmalogen No 03, plasma, treatment ratio versus control (day 14): 0.77*
- Citrate, plasma, treatment ratio versus control (day 14): 0.94
- Docosahexaenoic acid (C22:cis[4,7,10,13,16,19]6), plasma, treatment ratio versus control (day 14): 0.78*
- Docosapentaenoic acid (C22:cis[7,10,13,16,19]5), plasma, treatment ratio versus control (day 14): 0.97
- Dodecanol, plasma, treatment ratio versus control (day 14): 0.84*
- Elaidic acid (C18:trans[9]1), plasma, treatment ratio versus control (day 14): 0.71*
- Glycerol phosphate, lipid fraction, plasma, treatment ratio versus control (day 14): 0.76
- Lysophosphatidylcholine (C20:4), plasma, treatment ratio versus control (day 14): 0.93
- Metanephrine, plasma, treatment ratio versus control (day 14): 0.61
- Phosphatidylcholine (C18:0,C18:1), plasma, treatment ratio versus control (day 14): 0.8*
- Phosphatidylcholine (C18:0,C22:6), plasma, treatment ratio versus control (day 14): 0.9
- Phosphatidylcholine No 04, plasma, treatment ratio versus control (day 14): 0.8*
- Progesterone, plasma, treatment ratio versus control (day 14): 0.45*
- alpha-Tocopherol, plasma, treatment ratio versus control (day 14): 0.76*
- gamma-Linolenic acid (C18:cis[6,9,12]3), plasma, treatment ratio versus control (day 14): 0.69
- myo-Inositol, lipid fraction, plasma, treatment ratio versus control (day 14): 0.77*
- threo-Sphingosine, plasma, treatment ratio versus control (day 14): 0.79
- 3-Methoxytyrosine, plasma, treatment ratio versus control (day 28): 1.09
- Arachidonic acid (C20:cis[5,8,11,14]4), plasma, treatment ratio versus control (day 28): 0.78
- Campesterol, plasma, treatment ratio versus control (day 28): 0.83
- Cholesterol, plasma, treatment ratio versus control (day 28): 0.76
- Choline plasmalogen No 03, plasma, treatment ratio versus control (day 28): 0.74*
- Citrate, plasma, treatment ratio versus control (day 28): 0.89*
- Docosahexaenoic acid (C22:cis[4,7,10,13,16,19]6), plasma, treatment ratio versus control (day 28): 0.75*
- Docosapentaenoic acid (C22:cis[7,10,13,16,19]5), plasma, treatment ratio versus control (day 28): 1
- Dodecanol, plasma, treatment ratio versus control (day 28): 0.86
- Elaidic acid (C18:trans[9]1), plasma, treatment ratio versus control (day 28): 0.79
- Glycerol phosphate, lipid fraction, plasma, treatment ratio versus control (day 28): 0.79
- Lysophosphatidylcholine (C20:4), plasma, treatment ratio versus control (day 28): 0.87*
- Metanephrine, plasma, treatment ratio versus control (day 28): 0.81
- Phosphatidylcholine (C18:0,C18:1), plasma, treatment ratio versus control (day 28): 0.7*
- Phosphatidylcholine (C18:0,C22:6), plasma, treatment ratio versus control (day 28): 0.99
- Phosphatidylcholine No 04, plasma, treatment ratio versus control (day 28): 0.69*
- Progesterone, plasma, treatment ratio versus control (day 28): 0.38*
- alpha-Tocopherol, plasma, treatment ratio versus control (day 28): 0.61*
- gamma-Linolenic acid (C18:cis[6,9,12]3), plasma, treatment ratio versus control (day 28): 0.73*
- myo-Inositol, lipid fraction, plasma, treatment ratio versus control (day 28): 0.86
- threo-Sphingosine, plasma, treatment ratio versus control (day 28): 0.79

Source: patent publication US20140342379A1, “Means and Methods for Assessing Gonadal Toxicity” (BASF SE, priority 2011, published 2014)
